Here are results for 32 compounds from patent US20240166641A1, “HETEROCYCLES AND USES THEREOF” (Kumquat Biosciences Inc., priority 2021, published 2024).

The target of one assay is T1, PTPN2 (Homo sapiens, UniProt P17706).
T1 sequence (P17706 1-415): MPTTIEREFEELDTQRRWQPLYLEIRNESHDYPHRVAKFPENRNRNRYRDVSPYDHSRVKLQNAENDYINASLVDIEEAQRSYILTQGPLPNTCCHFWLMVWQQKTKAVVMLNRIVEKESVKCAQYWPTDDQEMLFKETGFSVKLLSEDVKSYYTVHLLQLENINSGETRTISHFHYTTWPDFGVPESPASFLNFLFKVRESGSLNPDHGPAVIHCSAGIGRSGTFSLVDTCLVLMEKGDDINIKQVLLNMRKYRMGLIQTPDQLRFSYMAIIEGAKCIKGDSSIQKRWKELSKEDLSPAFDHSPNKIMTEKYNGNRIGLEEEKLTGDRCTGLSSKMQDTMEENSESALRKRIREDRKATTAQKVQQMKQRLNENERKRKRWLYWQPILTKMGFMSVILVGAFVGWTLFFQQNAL
As to the kind of experiment: Phosphatase activity assay (Bio-Biochem-DiFMUP), PTPN2. The class given is biochemical. As to conditions: DiFMUP substrate, room temperature. The text has this:
(§1) The selectivity and potency of a small molecule PTPN2 inhibitor as provided herein (e.g., a derivative of Formula I, II, III, IV; or sub-formulae thereof) against one or more protein tyrosine phosphatase (PTP) enzymes, and specifically against PTPN2, can be assessed in various ways. The one or more PTP enzymes comprise Mycobacterium protein tyrosine phosphatase A (mPTPA), Mycobacterium protein tyrosine phosphatase B (mPTPB), PTPN1 (i.e., PTP1B), PTPN2 (i.e., TC-PTP), SHP-1, SHP-2, FAP-1, Meg2, HePTP, Laforin, VHX, VHR, LMWPTP, Cdcl4A, LAR, CD45, PTPRG, a fragment thereof, a variant thereof, and a combination thereof. Selectivity and potency of a small molecule PTPN2 inhibitor is evaluated using a PTP activity inhibition assay. The assay is performed using a buffer comprising 50 millimolar (mM) Bis-Tris (pH=6.3), 2 mM EDTA, and 5 mM N,N′-dimethyl-N,N′-bis(mercaptoacetyl)hydrazine (DMH). The assay is performed using a phosphated substrate, e.g., 10 mM fluorescein diphosphate (FDP) that is stored at −20° C. Alternatively or in addition to, the assay is performed using 10 mM DiFMUP as a phosphated substrate. Each PTP enzyme is diluted in an enzyme dilution buffer comprising 50 mM Bis-Tris (pH=6.3), 2 mM EDTA, 5 mM DMH, 20% (vol./vol.) glycerol, and 0.01% (vol./vol.) Triton X-100.
(§2) The assay is carried out at room temperature in 96 well plates. A reaction mixture of 170 microliter (μL) of the assay buffer comprising 10 μM FDP or DiFMIUP is added to each well. A 10 μL volume of (i) a compound disclosed herein (e.g., PTPN2 inhibitor) dissolved in DMSO at one of 10 concentrations from a serial dilution or (ii) DMSO alone for control is added to each well. The reaction is initiated by adding 20 μL of a PTP enzyme (e.g., PTPN2) that is diluted in the enzyme dilution buffer. The phosphatase activity of the PTP enzyme is assessed by monitoring appearance of a fluorescent product (e.g., fluorescein monophosphate (FMP) from FDP, or 6,8-difluoro-7-hydroxyl-4-coumarin (DiFMU) from DiFMUP) continuously for about 15 to 30 minutes, using the SpectraMax® Gemini™ XPS Microplate Spectrofluorometer (Molecular Devices®) with excitation of 440 nm and emission at 530 nm (cutoff filter at 525 nm) for FMP and excitation at 360 nm and emission at 450 nm (cutoff filter at 435 nm) for DiFMU. The rate (e.g., the initial rate) of FMP or DiFMU formation is plotted against the concentration of the small molecule PTPN2 inhibitor, and the data is fitted (e.g., using a 4-parameter equation) to determine the inflection point of the fit as the IC50 of the small molecule PTPN2 inhibitor for a specific enzyme. Table 6 summarizes the IC50 values of compounds disclosed herein against PTPN2 and PTPN1.

Another assay has as its target T2, PTP1B (Homo sapiens, UniProt P18031).
T2 sequence (P18031 1-435): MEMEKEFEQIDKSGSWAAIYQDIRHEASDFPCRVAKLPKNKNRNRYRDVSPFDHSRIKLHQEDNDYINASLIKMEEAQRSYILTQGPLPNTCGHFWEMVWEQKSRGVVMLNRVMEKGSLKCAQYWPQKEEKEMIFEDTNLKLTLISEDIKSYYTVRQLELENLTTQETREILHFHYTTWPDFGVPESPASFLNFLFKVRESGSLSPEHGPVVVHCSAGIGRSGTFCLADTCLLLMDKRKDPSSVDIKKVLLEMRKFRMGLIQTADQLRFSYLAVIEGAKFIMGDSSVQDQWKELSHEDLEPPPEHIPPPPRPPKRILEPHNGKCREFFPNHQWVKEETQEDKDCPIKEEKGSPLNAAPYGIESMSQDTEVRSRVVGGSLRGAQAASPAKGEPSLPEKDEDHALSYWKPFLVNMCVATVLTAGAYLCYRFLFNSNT
Kind of assay: Phosphatase activity assay (Bio-Biochem-DiFMUP), PTP1B. The class given is biochemical. The settings on record: DiFMUP substrate, room temperature.
Text: as §1, §2

One may read the IC50 as the concentration that inhibits the measured activity by half.

`COc1cc2c(cc1N1CC(=O)NS1(=O)=O)C(=O)N(C)CC2` [Compound 101]: the IC50 at PTPN2 and at PTP1B was > 10 µM throughout.
Turning to `COC(=O)c1cc2cc(N3CC(=O)NS3(=O)=O)c(OC)cc2s1` [Compound 102, methyl 5-(1,1-dioxido-4-oxo-1,2,5-thiadiazolidin-2-yl)-6-methoxybenzo[b]thiophene-2-carboxylate], the IC50 on PTPN2 and on PTP1B was > 10 µM in each case.
Take `COC(=O)c1cc2cc(N3CC(=O)NS3(=O)=O)c(O)cc2s1` [Compound 103]: the IC50 on PTPN2 and at PTP1B was 1 to 10 µM in each case.
`CN1CCc2cc(O)c(N3CC(=O)NS3(=O)=O)cc2C1=O` [Compound 104]: the IC50 on PTPN2 and at PTP1B was > 10 µM each time.
For `CC(C)CCCN1CCc2cc(O)c(N3CC(=O)NS3(=O)=O)cc2C1=O` [Compound 105], the IC50 was 1 to 10 µM at PTPN2 and > 10 µM on PTP1B.
The matching figures for `CC(C)CCNc1ccc2cc(O)c(C3=CC(=O)NS3(=O)=O)cc2n1` [Compound 106, 5-(6-hydroxy-2-(isopentylamino)quinolin-7-yl)isothiazol-3(2H)-one 1,1-dioxide]: 1 to 10 µM and ≤ 1 µM.
In the case of `O=C1C=C(c2cc3cc(Cl)cnc3cc2O)S(=O)(=O)N1` [Compound 107], the IC50 at PTPN2 was > 10 µM; on PTP1B, 1 to 10 µM.
Taken in the same sequence, the figures for `CC(C)CCN1Cc2cc(C3=CC(=O)NS3(=O)=O)c(O)cc2N(C)C1=O` [Compound 108, 5-(7-hydroxy-3-isopentyl-1-methyl-2-oxo-1,2,3,4-tetrahydroquinazolin-6-yl)isothiazol-3(2H)-one 1,1-dioxide] were > 10 µM and > 10 µM.
The matching figures for `CC(C)CCNc1ccc2cc(O)c(C3CC(=O)NS3(=O)=O)cc2n1` (stereo not shown) [Compound 109]: > 10 µM and 1 to 10 µM.
Taken in the same sequence, the figures for `CC(C)CCN1Cc2cc(C3=CC(=O)NS3(=O)=O)c(O)cc2CC1=O` [Compound 110] were 1 to 10 µM and 1 to 10 µM.
Turning to `CC(C)CCN1Cc2cc(C3CC(=O)NS3(=O)=O)c(O)cc2N(C)C1=O` (stereo not shown) [Compound 111, 5-(7-hydroxy-3-isopentyl-1-methyl-2-oxo-1,2,3,4-tetrahydroquinazolin-6-yl)isothiazolidin-3-one 1,1-dioxide], the IC50 at PTPN2 and at PTP1B was > 10 µM in each case.
Take `CC(C)CCN1Cc2cc(C3CC(=O)NS3(=O)=O)c(O)cc2CC1=O` (stereo not shown) [Compound 112]: the IC50 on PTPN2 and on PTP1B was > 10 µM in each case.
Regarding `CN1CC=C(c2cnc3cc(O)c(C4=CC(=O)NS4(=O)=O)cc3c2)CC1` [Compound 114], the IC50 on PTPN2 and at PTP1B was > 10 µM in each case.
As to `O=C1C=C(c2cc3cc(-c4cccnc4)cnc3cc2O)S(=O)(=O)N1` [Compound 115, 5-(7-hydroxy-3-(pyridin-3-yl)quinolin-6-yl)isothiazol-3(2H)-one 1,1-dioxide], the IC50 was > 10 µM at PTPN2 and 1 to 10 µM at PTP1B.
Taken in the same sequence, the figures for `CC(C)CCN1Cc2cc(N3CC(=O)NS3(=O)=O)c(O)cc2N(C)C1=O` [Compound 116] were 1 to 10 µM and ≤ 1 µM.
With `O=C1CN(c2cc3nc(NCCc4ccccc4)ccc3cc2O)S(=O)(=O)N1` [Compound 118], the IC50 at PTPN2 and at PTP1B was ≤ 1 µM in each case.
Take `CC(C)CCN1Cc2cc(N3CC(=O)NS3(=O)=O)c(O)cc2CC1=O` [Compound 119, 5-(6-hydroxy-2-isopentyl-3-oxo-1,2,3,4-tetrahydroisoquinolin-7-yl)-1,2,5-thiadiazolidin-3-one 1,1-dioxide]: the IC50 at PTPN2 and at PTP1B was ≤ 1 µM each time.
As to `CC(C)CCN(C)c1ccc2cc(O)c(N3CC(=O)NS3(=O)=O)cc2n1` [Compound 121], the IC50 at PTPN2 and on PTP1B was 1 to 10 µM throughout.
Take `CC(C)CN(C)Cc1cc(=O)n2cc(O)c(C3=CC(=O)NS3(=O)=O)cc2c1` [Compound 122]: the IC50 on PTPN2 and on PTP1B was > 10 µM in each case.
For `Cn1c(=O)c(NCCc2ccccc2)cc2cc(N3CC(=O)NS3(=O)=O)c(O)cc21` [Compound 123, 5-(7-hydroxy-1-methyl-2-oxo-3-(phenethylamino)-1,2-dihydroquinolin-6-yl)-1,2,5-thiadiazolidin-3-one 1,1-dioxide], the half-maximal inhibitory concentration (IC50) on PTPN2 and on PTP1B was ≤ 1 µM in each case.
For the compound `COc1ccc2cc(O)c(N3CC(=O)NS3(=O)=O)cc2n1` [Compound 124], the half-inhibitory concentration (IC50) on PTPN2 and on PTP1B was ≤ 1 µM in each case.
With `O=C1CN(c2c(O)cc3ccc(NCCc4ccccc4)nc3c2F)S(=O)(=O)N1` [Compound 125], the IC50 at PTPN2 and on PTP1B was ≤ 1 µM each time.
Consider `O=C1CN(c2cc3nc(NCCc4ccccn4)ccc3cc2O)S(=O)(=O)N1` [Compound 126], for which the IC50 on PTPN2 and on PTP1B was ≤ 1 µM each time.
Consider `Cn1c(=O)c(NCCN2CCOCC2)cc2cc(N3CC(=O)NS3(=O)=O)c(O)cc21` [Compound 127], for which the IC50 at PTPN2 and at PTP1B was ≤ 1 µM in each case.
`O=C1CN(c2cc3nc(OCCN4CCOCC4)ccc3cc2O)S(=O)(=O)N1` [Compound 131]: the IC50 on PTPN2 and on PTP1B was > 10 µM each time.
For the compound `CC(C)CCNC(=O)c1cc2cc(N3CC(=O)NS3(=O)=O)c(O)cc2s1` [Compound 132], the IC50 on PTPN2 and on PTP1B was ≤ 1 µM in each case.
For `Cn1c(=O)c(N2CCCC2)cc2cc(N3CC(=O)NS3(=O)=O)c(O)cc21` [Compound 134], the IC50 at PTPN2 is 1 to 10 µM; at PTP1B it was ≤ 1 µM.
Taken in the same sequence, the figures for `CC(C)CCNc1ccc2cc(O)c(N3C(C)C(=O)NS3(=O)=O)cc2n1` (stereo not shown) [Compound 137, 5-(6-hydroxy-2-(isopentylamino)quinolin-7-yl)-4-methyl-1,2,5-thiadiazolidin-3-one 1,1-dioxide] were ≤ 1 µM and ≤ 1 µM.
The matching figures for `CC(C)OCCNc1ccc2cc(O)c(N3CC(=O)NS3(=O)=O)cc2n1` [Compound 138]: ≤ 1 µM and ≤ 1 µM.
The matching figures for `Cn1c(=O)c(NCCOC2CCCC2)cc2cc(N3CC(=O)NS3(=O)=O)c(O)cc21` [Compound 140]: 1 to 10 µM and ≤ 1 µM.
Consider `Cn1c(=O)c(NCCC2CCCCC2)cc2cc(N3CC(=O)NS3(=O)=O)c(O)cc21` [Compound 141], for which the IC50 on PTPN2 and at PTP1B was ≤ 1 µM throughout.
For the compound `CC(C)CCNc1cnc2cc(O)c(N3CC(=O)NS3(=O)=O)cc2c1` [Compound 142, 5-(7-hydroxy-3-(isopentylamino)quinolin-6-yl)-1,2,5-thiadiazolidin-3-one 1,1-dioxide], the IC50 on PTPN2 and at PTP1B was ≤ 1 µM in each case.
